{
  "source": "patent US10988523B2",
  "about": "“Modified lipidated Relaxin B chain peptides and their therapeutic use” (Sanofi, priority 2018, dated 2021)",
  "key": {"[1]": {"experiment": "Pharmacokinetic (PK) determination after i.v. or s.c. administration to rats", "type": "in vivo, Sprague Dawley rats", "details": "Sprague Dawley, Rat PK", "how_it_was_run": "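Sprague Dawley rats received peptide in PBS at 1 mg/kg i.v. or 3 mg/kg s.c., dose corrected for salts, solvent and purity. Plasma analysed by LC/MS after protein precipitation; non-compartmental PK, BLQ values set to zero, F% as dose-corrected s.c./i.v. AUC ratio.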"}, "[2]": {"experiment": "Stability testing of peptides in rat plasma or blood", "type": "in vitro ADME", "details": "37° C.", "how_it_was_run": "(§1)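 Peptide at 5 µM final was incubated at 37 °C in heparinized rat or human plasma or blood, sampled up to 4 h, and extracted with acetonitrile/1% TFA. HPLC peak areas relative to t0 give % remaining peptide.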"}, "RXFP1": {"molecular_target": "T1, RXFP1 (Homo sapiens, UniProt Q9HBX9)", "T1 construct": "OVCAR5 cells expressing endogenous RXFP1; endogenous in cells; host or cells: OVCAR5 cells", "T1 sequence (Q9HBX9 1-757)": "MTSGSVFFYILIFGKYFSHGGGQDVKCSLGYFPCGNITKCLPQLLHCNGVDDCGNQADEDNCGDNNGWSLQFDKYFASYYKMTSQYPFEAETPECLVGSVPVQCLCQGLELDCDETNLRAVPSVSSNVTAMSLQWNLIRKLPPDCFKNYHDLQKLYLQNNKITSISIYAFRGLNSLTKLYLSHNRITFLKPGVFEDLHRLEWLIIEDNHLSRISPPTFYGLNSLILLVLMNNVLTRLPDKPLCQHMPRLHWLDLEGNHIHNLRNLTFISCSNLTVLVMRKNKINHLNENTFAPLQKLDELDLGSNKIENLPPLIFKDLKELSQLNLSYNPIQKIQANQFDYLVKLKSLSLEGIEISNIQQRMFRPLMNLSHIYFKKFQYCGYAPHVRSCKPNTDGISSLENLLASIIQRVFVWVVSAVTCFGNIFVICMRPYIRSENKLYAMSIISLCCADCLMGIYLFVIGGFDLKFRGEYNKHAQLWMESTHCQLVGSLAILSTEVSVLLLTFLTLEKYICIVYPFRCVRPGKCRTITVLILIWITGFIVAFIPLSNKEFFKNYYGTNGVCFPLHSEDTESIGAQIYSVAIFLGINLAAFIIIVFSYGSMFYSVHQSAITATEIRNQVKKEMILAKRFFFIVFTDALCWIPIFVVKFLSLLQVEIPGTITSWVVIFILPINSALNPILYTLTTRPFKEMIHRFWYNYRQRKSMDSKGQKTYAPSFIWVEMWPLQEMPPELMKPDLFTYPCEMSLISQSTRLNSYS", "experiment": "OVCAR5 cAMP assay (HTRF), RXFP1 agonist activity", "type": "cell-based", "how_it_was_run": "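OVCAR5 cells (endogenous RXFP1) pretreated 40 min at 37° C with 1 mM IBMX, then exposed to peptides in serum-free medium for 30 min at 37° C. Lysate cAMP read by HTRF; EC50 from variable-slope sigmoidal fit; Emax as % of H2-relaxin maximal cAMP in same run.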"}, "[3]": {"experiment": "Stability testing of peptides in human plasma or blood", "type": "in vitro ADME", "details": "37° C.", "how_it_was_run": "as §1"}},
  "note": "*1 amine or outer side, *2 acyl side, *3 side chain or, on linkers, in order; H or OH if unused. Where a SMILES comes first, the peptide text is derived from it. Side-chain parts run from the residue outwards. [ ]: non-standard residue; d: D form. The star is where a group is joined. γGlu = O=C(O)[C@H](CCC(=O)[*:2])N[*:1]; Palmitoyl = CCCCCCCCCCCCCCCC(=O)*; αMeK = C[C@](N)(CCCCN)C(=O)O; AEEA = NCCOCCOCC(=O)O; Aib = CC(C)(N)C(=O)O",
  "data": [
    {"molecule": "CCCCCCCCCCCCCCCC(=O)N[C@@H](CCC(=O)N[C@@H](CCC(=O)N[C@@H](CCC(=O)N[C@@H](CCC(=O)NCCCC[C@H](NC(=O)COCCOCCNC(=O)COCCOCCNC(=O)COCCOCCNC(=O)COCCOCCNC(=O)[C@H](CCCCNC(C)=O)NC(=O)[C@H](C)NC(=O)[C@H](CCCNC(=N)N)NC(=O)[C@](C)(CCCCN)NC(=O)[C@H](CO)NC(=O)[C@H](Cc1ccccc1)NC(=O)[C@@H](NC(=O)[C@H](CO)NC(=O)[C@H](CCC(N)=O)NC(=O)CNC(=O)[C@H](CCC(=O)O)NC(=O)C(C)(C)NC(=O)C(C)(C)NC(=O)[C@@H](NC(=O)[C@H](CCCCNC(C)=O)NC(=O)[C@H](C)NC(=O)[C@H](CCCNC(=N)N)NC(=O)[C@@H](NC(=O)[C@H](CCCCN)NC(=O)[C@H](CCC(=O)O)NC(=O)[C@H](CCCNC(=N)N)NC(=O)CNC(=O)[C@H](CCC(=O)O)NC(=O)[C@H](CC(C)C)NC(C)=O)C(C)C)[C@@H](C)CC)[C@@H](C)O)C(N)=O)C(=O)O)C(=O)O)C(=O)O)C(=O)O", "note": "[compound 170] (Ac-LEGREKVRAK(Ac)I[Aib][Aib]EGQSTFS[αMeK]RAK(Ac)[AEEA][AEEA][AEEA][AEEA]K([γGlu-γGlu-γGlu-γGlu-Palmitoyl])-NH2)", "values": [
      {"measurement": "C0", "setting": "[1]; iv, 1 mg/kg i.v., extrapolated plasma concentration at t=0, read-out: C0", "result": 7.76, "unit": "µM"},
      {"measurement": "half-life", "setting": "[1]; plasma, iv, 1 mg/kg i.v., read-out: T½ (converted)", "result": 10, "unit": "h"},
      {"measurement": "Cmax", "setting": "[1]; plasma, sc, 3 mg/kg s.c.", "result": 0.78, "unit": "µM"},
      {"measurement": "Tmax", "setting": "[1]; plasma, sc, 3 mg/kg s.c.", "result": 4, "unit": "h"},
      {"measurement": "bioavailability", "setting": "[1]; plasma, subcutaneous, 3 mg/kg s.c. vs 1 mg/kg i.v., dose-corrected AUC ratio", "result": 87, "unit": "%"},
      {"measurement": "Rat plasma stability % remaining T = 0", "setting": "[2]; rat plasma or blood, T = 0 (reference), 5 μM", "result": 100, "unit": "%"},
      {"measurement": "remaining at 1 h, 5 µM", "setting": "[2]; whole blood, rat blood, 1 h, read-out: Rat stability in blood % remaining 1 h", "result": 107, "unit": "%"},
      {"measurement": "remaining at 4 h, 5 µM", "setting": "[2]; whole blood, rat blood, 4 h, read-out: Rat stability in blood % remaining 4 h", "result": 99, "unit": "%"},
      {"measurement": "EC50", "setting": "RXFP1; OVCAR5 cells, cAMP HTRF, read-out: EC50 (nM), OVCAR 5 cells (cAMP)", "result": 0.01, "unit": "nM"},
      {"measurement": "Emax", "setting": "RXFP1; OVCAR-5, maximal cAMP relative to H2-relaxin maximum (100%), read-out: EMax, OVCAR 5 cells (cAMP)", "result": 87, "unit": "%"},
      {"measurement": "Human Plasma stability % remaining T = 0", "setting": "[3]; human plasma or blood, T = 0 (reference), 5 μM", "result": 100, "unit": "%"},
      {"measurement": "remaining at 1 h, 5 µM", "setting": "[3]; whole blood, human blood, 1 h, read-out: Human stability in blood % remaining 1 h", "result": 107, "unit": "%"},
      {"measurement": "remaining at 4 h, 5 µM", "setting": "[3]; whole blood, human blood, 4 h, read-out: Human stability in blood % remaining 4 h", "result": 106, "unit": "%"}
    ]}
  ]
}
